Experimental data from patent US20160039825A1 (BIOGEN MA INC., priority 2013, published 2016).

Target: T1, Human ATX protein (Homo sapiens, UniProt Q13822)
T1 construct: made in house
Assay: Autotaxin (ATX) assay, FRET with FS-3 substrate
Type: biochemical
Settings: greater than 10 μM
In short: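 In-house human ATX (1.0 μg/mL final) was preincubated with compound for 30 min at room temperature in Tris buffer pH 7.4 with NaCl, KCl, CaCl2, MgCl2 and 1 mg/mL fatty acid-free BSA. FS-3 (2 μM final) was added and the plate shaken 2 h at room temperature in the dark. Fluorescence was read at ex 485/em 538 nm.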

IC50 | Compound
> 10000 nM | CCOC(=O)C1CN(C(=O)OCc2cc(C(F)(F)F)cc(C(F)(F)F)c2)Cc2ccnn21 (stereo not shown) [Example 405]

Same assay, conditions: upper bound bins (no greater than 100, 250 or 500 nM); FS-3 2 μM, ATX 1.0 μg/mL

IC50 | Compound
≤ 100 nM | CC1CN(CC(=O)c2cc3n(n2)CCCN(C(=O)OCc2cc(Cl)cc(C(F)(F)F)c2)C3)CC(C)O1 (stereo not shown) [Example 269]
≤ 100 nM | CC(C(=O)O)c1cc2n(n1)CCCN(C(=O)OCc1cc(C(F)(F)F)cc(C(F)(F)F)c1)C2 (stereo not shown) [Example 387, 2-(5-(((3,5-bis(Trifluoromethyl)benzyl)oxy)carbonyl)-5,6,7,8-tetrahydro-4H-pyrazolo[1,5-a][1,4]diazepin-2-yl)propanoic acid]
≤ 500 nM | CC(c1cc2n(n1)CCCN(C(=O)OCc1cc(Cl)cc(Cl)c1)C2)N1CCCC1 (stereo not shown) [Example 454]
≤ 100 nM | N#CC1CN(C(=O)c2cc3n(n2)CCCN(C(=O)OCc2cc(Cl)cc(C(F)(F)F)c2)C3)CCN1 (stereo not shown) [Example 171]
≤ 100 nM | O=C(NC1CCCCC1)c1cc2n(n1)CCN(C(=O)OCc1cc(C(F)(F)F)cc(C(F)(F)F)c1)C2 [Example 492]
≤ 100 nM | O=C(O)c1cc2n(n1)CCCN(C(=O)OCc1cc(Cl)cc(C(F)(F)F)c1)C2 [Example 65, 5-(((3-Chloro-5-(trifluoromethyl)benzyl)oxy)carbonyl)-5,6,7,8-tetrahydro-4H-pyrazolo[1,5-a][1,4]diazepine-2-carboxylic acid]
≤ 100 nM | O=C(OCc1cc(Cl)cc(C(F)(F)F)c1)N1CCCn2nc(C3CN4CCC[C@H]4CO3)cc2C1 (mixture of isomers) [Example 251, 3-Chloro-5-(trifluoromethyl)benzyl 2-((8aS)-hexahydro-1H-pyrrolo[2,1-c][1,4]oxazin-3-yl)-7,8-dihydro-4H-pyrazolo[1,5-a][1,4]diazepine-5(6H)-carboxylate]
≤ 100 nM | O=C(NC1=NCCS1)c1cc2n(n1)CCCN(C(=O)OCc1cc(C(F)(F)F)cc(C(F)(F)F)c1)C2 [Example 173]
≤ 100 nM | O=C(OCc1cc(C(F)(F)F)cc(C(F)(F)F)c1)N1CCCn2nc(-c3ccncc3)cc2C1 [Example 367]
≤ 100 nM | NC(=O)c1cc2n(n1)CCN(C(=O)OCc1cc(C(F)(F)F)cc(C(F)(F)F)c1)C2 [Example 491]
≤ 100 nM | O=C(OCc1cc(C(F)(F)F)cc(C(F)(F)F)c1)N1CCCn2nc(N3CCC4NCCC43)cc2C1 (stereo not shown) [Example 359]
≤ 100 nM | O=C(O)c1nn2c(c1F)CN(C(=O)OCc1cc(Cl)cc(C(F)(F)F)c1)CCC2 [Example 399, 5-(((3-chloro-5-(trifluoromethyl)benzyl)oxy)carbonyl)-3-fluoro-5,6,7,8-tetrahydro-4H-pyrazolo[1,5-a][1,4]diazepine-2-carboxylic acid]
≤ 100 nM | CN1CCN(C(=O)c2cc3n(n2)CCCN(C(=O)OCc2cc(Cl)cc(C(F)(F)F)c2)C3)C(C(=O)O)C1 (stereo not shown) [Example 184]
≤ 100 nM | CC(c1cc2n(n1)CCN(C(=O)OCc1cc(C(F)(F)F)cc(C(F)(F)F)c1)C2)N1CCN(C(=O)OC(C)(C)C)CC1 (stereo not shown) [Example 448]
≤ 100 nM | O=C(OCc1cc(Cl)cc(C(F)(F)F)c1)N1CCn2nc(C(=O)N3CC4CNCC4C3)cc2C1 (stereo not shown) [Example 442]
≤ 250 nM | O=C(OCc1cc(C(F)(F)F)cc(C(F)(F)F)c1)N1CCCn2nc(NC3CCNCC3)cc2C1 [Example 313, 3,5-bis(trifluoromethyl)benzyl 2-(piperidin-4-ylamino)-7,8-dihydro-4H-pyrazolo[1,5-a][1,4]diazepine-5(6H)-carboxylate]
≤ 100 nM | CC1CNCC(C)N1C(=O)c1cc2n(n1)CCN(C(=O)OCc1cc(Cl)cc(C(F)(F)F)c1)C2 (stereo not shown) [Example 162, 3-chloro-5-(trifluoromethyl)benzyl 2-(2,6-dimethylpiperazine-1-carbonyl)-6,7-dihydropyrazolo[1,5-a]pyrazine-5(4H)-carboxylate]
≤ 100 nM | O=C(OCc1cc(C(F)(F)F)cc(C(F)(F)F)c1)N1CCn2nc(-c3cn[nH]c3)cc2C1 [Example 500]
≤ 100 nM | O=C(OCc1cc(Cl)cc(Cl)c1)N1CCCn2nc(C(=O)N3CCC(F)CC3)cc2C1 [Example 20, 3,5-Dichlorobenzyl 2-(4-fluoropiperidine-1-carbonyl)-7,8-dihydro-4H-pyrazolo[1,5-a][1,4]diazepine-5(6H)-carboxylate]
≤ 250 nM | O=C(N[C@H]1CC[C@H](C(=O)O)CC1)c1cc2n(n1)CCCN(C(=O)OCc1cc(Cl)cc(Cl)c1)C2 [Example 86, (trans)-4-(5-(((3,5-Dichlorobenzyl)oxy)carbonyl)-5,6,7,8-tetrahydro-4H-pyrazolo[1,5-a][1,4]diazepine-2-carboxamido)cyclohexanecarboxylic acid]

IC50 | Compound
≤ 100 nM | O=C(OCc1cc(Cl)cc(C(F)(F)F)c1)N1CCCn2nc(C(=O)N3CCCNCC3)cc2C1 [Example 193]
≤ 100 nM | CC1CNCCN1C(=O)c1cc2n(n1)CCN(C(=O)OCc1cc(C(F)(F)F)cc(C(F)(F)F)c1)C2 (stereo not shown) [Example 423]
≤ 500 nM | CCOC(=O)c1cc2n(c1)CCCN(C(=O)OCc1cc(Cl)cc(Cl)c1)C2 [Example 99, 2-(3,5-Dichlorobenzyl) 8-ethyl 4,5-dihydro-1H-pyrrolo[1,2-a][1,4]diazepine-2,8(3H)-dicarboxylate]
≤ 100 nM | CC(C)(C)OC(=O)N1CCN(C(=O)c2cc3n(n2)CCN(C(=O)OCc2cc(Cl)cc(C(F)(F)F)c2)C3)C(C)(C)C1 [Example 475]
≤ 100 nM | CC(C)(C)OC(=O)N1CC=C(c2cc3n(n2)CCN(C(=O)OCc2cc(C(F)(F)F)cc(C(F)(F)F)c2)C3)CC1 [Example 497]
≤ 500 nM | O=C(O)c1cc2n(n1)CCCN(C(=O)CNc1cc(C(F)(F)F)cc(C(F)(F)F)c1)C2 [Example 116, 5-(2-((3,5-Bis(trifluoromethyl)phenyl)amino)acetyl)-5,6,7,8-tetrahydro-4H-pyrazolo[1,5-a][1,4]diazepine-2-carboxylic acid]
≤ 100 nM | CCOC(=O)c1cn2c(n1)CN(C(=O)OCc1cc(C(F)(F)F)cc(C(F)(F)F)c1)CC2 [Example 3, 7-(3,5-Bis(trifluoromethyl)benzyl) 2-ethyl 5,6-dihydroimidazo[1,2-a]pyrazine-2,7(8H)-dicarboxylate]
≤ 100 nM | CCC1(CC)CN(C)CCN1C(=O)c1cc2n(n1)CCCN(C(=O)OCc1cc(Cl)cc(C(F)(F)F)c1)C2 [Example 229]
≤ 100 nM | CC(C)(C)OC(=O)N1CCN(C(=O)c2cc3n(n2)CCN(C(=O)OCc2cc(Cl)cc(C(F)(F)F)c2)C3)CC1 [Example 471]
≤ 100 nM | O=C(OCc1cc(Cl)cc(Cl)c1)N1CCCn2nc(C(=O)N3CCCC3)cc2C1 [Example 18, 3,5-Dichlorobenzyl 2-(pyrrolidine-1-carbonyl)-7,8-dihydro-4H-pyrazolo[1,5-a][1,4]diazepine-5(6H)-carboxylate]
≤ 250 nM | CN(C)C(=O)c1cc2n(n1)CCN(C(=O)OCc1cc(C(F)(F)F)cc(C(F)(F)F)c1)C2 [Example 480]
≤ 100 nM | O=C(O)c1cc2n(n1)CCCN(C(=O)CCc1cc(Cl)cc(Cl)c1)C2 [Example 83, 5-(3-(3,5-Dichlorophenyl)propanoyl)-5,6,7,8-tetrahydro-4H-pyrazolo[1,5-a][1,4]diazepine-2-carboxylic acid]
≤ 100 nM | CN(C)C(=O)c1cc2n(n1)CCCN(C(=O)OCc1cc(Cl)cc(Cl)c1)C2 [Example 28, 3,5-Dichlorobenzyl 2-(dimethylcarbamoyl)-7,8-dihydro-4H-pyrazolo[1,5-a][1,4]diazepine-5(6H)-carboxylate]
≤ 100 nM | Cc1cc(-c2cc3n(n2)CCCN(C(=O)OCc2cc(C(F)(F)F)cc(C(F)(F)F)c2)C3)ccn1 [Example 368]
≤ 100 nM | O=C(O)c1cc2n(c1)CCCN(C(=O)OCc1cc(Cl)cc(Cl)c1)C2 [Example 100, 2-(((3,5-Dichlorobenzyl)oxy)carbonyl)-2,3,4,5-tetrahydro-1H-pyrrolo[1,2-a][1,4]diazepine-8-carboxylic acid]
≤ 100 nM | CC1CCN(C(=O)c2cc3n(n2)CCCN(C(=O)OCc2cc(Cl)cc(Cl)c2)C3)CC1 [Example 21, 3,5-Dichlorobenzyl 2-(4-methylpiperidine-1-carbonyl)-7,8-dihydro-4H-pyrazolo[1,5-a][1,4]diazepine-5(6H)-carboxylate]
≤ 500 nM | CC(=O)c1cc2n(n1)CCN(C(=O)OCc1cc(C(F)(F)F)cc(C(F)(F)F)c1)C2 [Example 401, 3,5-bis(trifluoromethyl)benzyl 2-acetyl-6,7-dihydropyrazolo[1,5-a]pyrazine-5(4H)-carboxylate]
≤ 100 nM | O=C(OCc1cc(C(F)(F)F)cc(C(F)(F)F)c1)N1CCn2nc(C3CN4CCC[C@@H]4CO3)cc2C1 (stereo partly drawn) [Example 256, 3,5-bis(trifluoromethyl)benzyl 2-((8aR)-hexahydro-1H-pyrrolo[2,1-c][1,4]oxazin-3-yl)-6,7-dihydropyrazolo[1,5-a]pyrazine-5(4H)-carboxylate]
≤ 100 nM | CC1COCCN1CC(=O)c1cc2n(n1)CCCN(C(=O)OCc1cc(Cl)cc(C(F)(F)F)c1)C2 (stereo not shown) [Example 257, 3-chloro-5-(trifluoromethyl)benzyl 2-(2-(3-methylmorpholino)acetyl)-7,8-dihydro-4H-pyrazolo[1,5-a][1,4]diazepine-5(6H)-carboxylate]

Compound | IC50
O=C(OCc1cc(C(F)(F)F)cc(C(F)(F)F)c1)N1CCn2nc(C(=O)N3C4CCCC3CCC4)cc2C1 [Example 487] | ≤ 100 nM
CC(c1cc2n(n1)CCN(C(=O)OCc1cc(C(F)(F)F)cc(C(F)(F)F)c1)C2)N1CC2CCC(C1)N2 (stereo not shown) [Example 427] | ≤ 100 nM
O=C(OCc1cc(C(F)(F)F)cc(C(F)(F)F)c1)N1CCn2nc(C3=CCNCC3)cc2C1 [Example 516] | ≤ 100 nM
CN1C2C=C(c3cc4n(n3)CCCN(C(=O)OCc3cc(C(F)(F)F)cc(C(F)(F)F)c3)C4)CC1CC2 (stereo not shown) [Example 379] | ≤ 100 nM
O=C(OCc1cc(C(F)(F)F)cc(C(F)(F)F)c1)N1CCn2nc(C(=O)N3CC4CCC(C3)N4)cc2C1 [Example 437] | ≤ 100 nM
O=C(O)C1CC2CCCC(C1)N2C(=O)c1cc2n(n1)CCCN(C(=O)OCc1ccc(C(F)(F)F)cc1)C2 (stereo not shown) [Example 60] | ≤ 100 nM
